# System: conscious telemetered beagle dogs
# Experiment: Left-ventricular hemodynamic, mechanical and timing indices by radio-telemetry before and during IV OM or vehicle, on repeated oral IVA or placebo
# Type: in vivo, beagle dog
# Description: Healthy male beagle dogs (n=7) instrumented with radio-telemetry units providing continuous single-lead electrocardiogram (ECG), as well as systemic (arterial, AoP) and left-ventricular (LVP) pressure signals were used for this study. Following sling acclimation, the animals were assigned to receive repeated oral (via gavage) treatments with either Ivabradine (IVA, 5 mg/kg bid) or a volume-matched placebo-control (sterile water, CTRL) for 5 days, administered at a dose volume of 10 mL/kg, in a cross over design.
# The animals were sling-restrained and were subjected to acute intravenous administration of either sterile water (VEH, on Days 4 and 11 of dosing) or Omecamtiv Mecarbil (OM, on Days 5 and 12 of dosing). OM treatments were performed over a 3-hour infusion duration, following a dose-escalation design targeting plasma concentrations of 600 and 1000 ng/mL (each over 90 minutes, with a 30 minute loading infusion followed by a 60 minute maintenance infusion) for a cumulative dose of 5.293 mg/kg (as shown in Table A below). The IV vehicle treatments were time- and volume-matched.
# Telemetered data were collected continuously for at least 90 minutes prior to and during dosing, as well as for at least 20 hours post-dose. The LVP and ECG signals were digitized at a sampling rate of at least 1000 Hz. The data were analyzed for heart rate (HR) and left-ventricular hemodynamic/mechanical indices that were obtained from the pressure waveform, including mean systolic (MSP) and end-diastolic (filling, EDP) pressures, the peak rates of pressure change during systole/diastole (dP/dtmax/min), as well as the time-constant of relaxation (tau) and a contractility index (CI: dP/dtmax normalized by the pressure at dP/dtmax). The data were also analyzed for systolic and diastolic intervals, including the estimated durations of the systolic ejection (SET), contraction (CT), active relaxation (RT) and filling intervals (FT), as well as the systolic-to-diastolic interval ratio (S/D: SET/RT+FT), which were derived from the left-ventricular pressure waveform.
# The left-ventricular indices were evaluated only in the sling-restrained animals before and during IV treatment with OM or vehicle. Cardiovascular responses at each dose level were monitored for up to 90 minutes, i.e., over 3 hours total (during IV dosing of VEH and OM on Days 4, 5, 11, and 12 in the dose administration paradigm). Overall, in-sling cardiovascular data are reported at the following pre-determined/targeted time points: prior to dosing (i.e., at baseline, PRE) and approximately at the end of each infusion period (i.e., up to 4 time points during dosing, D1 to D4). Signals were analyzed continuously in 5-minute epochs, with pre-administration (i.e., PRE) values representing the overall mean over at least 5-epochs (i.e., 25 minutes) taken immediately prior to the onset of dosing, while during-dosing values reflect 5-minute averages (i.e., 1 epoch) taken prior to the (estimated) termination of each infusion. Data are presented as both means with standard deviations in summarizing tables/figure; beat-to-beat plots against heart rate are part of the study file.
# [1] = D1, end of 30-min loading infusion, target OM 600 ng/mL
# [2] = D2, end of 60-min maintenance infusion, target OM 600 ng/mL
# [3] = D3, end of 30-min loading infusion, target OM 1000 ng/mL
# [4] = D4, end of 60-min maintenance infusion, target OM 1000 ng/mL
# [5] = PRE, before IV dosing (baseline)
# [6] = baseline after repeated oral IVA 5 mg/kg bid, mean pre-dosing averages across study days
# [7] = baseline after repeated oral IVA 5 mg/kg bid, vs. placebo-control
compound,measurement,setting,value
COc1cc2c(cc1OC)CC(=O)N(CCCN(C)C[C@H]1Cc3cc(OC)c(OC)cc31)CC2 [IVA],CT % vs. PRE,[1],4%
same,CT (contraction time),[1],63.8 ms
same,EDP % vs. PRE,[1],−10%
same,EDP (left-ventricular end-diastolic pressure),[1],14.4 mmHg
same,FT % vs. PRE,[1],11%
same,FT (filling time),[1],586 ms
same,HR % vs. PRE,[1],−9%
same,HR (heart rate),[1],76 bpm
same,MSP % vs. PRE,[1],0%
same,MSP (left-ventricular mean systolic pressure),[1],138 mmHg
same,RT % vs. PRE,[1],1%
same,RT (relaxation time),[1],88 ms
same,S/D % vs. PRE,[1],−4%
same,"S/D (systolic to diastolic ratio, SET/RT + FT)",[1],0.2
same,SET % vs. PRE,[1],4%
same,SET (systolic ejection time),[1],161 ms
same,Tau % vs. PRE,[1],3 ± 2%
same,Tau (left-ventricular relaxation time-constant),[1],28.7 ± 1.7 ms
same,Vmax % vs. PRE,[1],0 ± 1%
same,Vmax (estimated maximal velocity of myocardial contractile-element shortening),[1],36.9 ± 1.3 s⁻¹
same,dP/dtmax % vs. PRE,[1],−2%
same,dP/dtmax (peak rate of LV pressure change during systole),[1],"2,606 mmHg/s"
same,dP/dtmin % vs. PRE,[1],−2%
same,dP/dtmin (peak rate of LV pressure change during diastole),[1],"−2,365 mmHg/s"
same,CT % vs. PRE,[2],9%
same,CT (contraction time),[2],67.2 ms
same,EDP % vs. PRE,[2],0%
same,EDP (left-ventricular end-diastolic pressure),[2],15.3 mmHg
same,FT % vs. PRE,[2],8%
same,FT (filling time),[2],571 ms
same,HR % vs. PRE,[2],−9%
same,HR (heart rate),[2],76 bpm
same,MSP % vs. PRE,[2],5%
same,MSP (left-ventricular mean systolic pressure),[2],145 mmHg
same,RT % vs. PRE,[2],4%
same,RT (relaxation time),[2],90 ms
same,S/D % vs. PRE,[2],0%
same,"S/D (systolic to diastolic ratio, SET/RT + FT)",[2],0.25
same,SET % vs. PRE,[2],6%
same,SET (systolic ejection time),[2],163 ms
same,Tau % vs. PRE,[2],6 ± 2%
same,Tau (left-ventricular relaxation time-constant),[2],29.3 ± 1.0 ms
same,Vmax % vs. PRE,[2],−1 ± 1%
same,Vmax (estimated maximal velocity of myocardial contractile-element shortening),[2],36.7 ± 0.8 s⁻¹
same,dP/dtmax % vs. PRE,[2],2%
same,dP/dtmax (peak rate of LV pressure change during systole),[2],"2,704 mmHg/s"
same,dP/dtmin % vs. PRE,[2],4%
same,dP/dtmin (peak rate of LV pressure change during diastole),[2],"−2,492 mmHg/s"
same,CT % vs. PRE,[3],6%
same,CT (contraction time),[3],64.9 ms
same,EDP % vs. PRE,[3],−4%
same,EDP (left-ventricular end-diastolic pressure),[3],14.5 mmHg
same,FT % vs. PRE,[3],24%
same,FT (filling time),[3],651 ms
same,HR % vs. PRE,[3],−17%
same,HR (heart rate),[3],69 bpm
same,MSP % vs. PRE,[3],3%
same,MSP (left-ventricular mean systolic pressure),[3],143 mmHg
same,RT % vs. PRE,[3],6%
same,RT (relaxation time),[3],92 ms
same,S/D % vs. PRE,[3],−8%
same,"S/D (systolic to diastolic ratio, SET/RT + FT)",[3],0.23
same,SET % vs. PRE,[3],8%
same,SET (systolic ejection time),[3],167 ms
same,Tau % vs. PRE,[3],5 ± 3%
same,Tau (left-ventricular relaxation time-constant),[3],29.2 ± 1.0 ms
same,Vmax % vs. PRE,[3],1 ± 2%
same,Vmax (estimated maximal velocity of myocardial contractile-element shortening),[3],37.2 ± 0.7 s⁻¹
same,dP/dtmax % vs. PRE,[3],0%
same,dP/dtmax (peak rate of LV pressure change during systole),[3],"2,662 mmHg/s"
same,dP/dtmin % vs. PRE,[3],1%
same,dP/dtmin (peak rate of LV pressure change during diastole),[3],"−2,425 mmHg/s"
same,CT % vs. PRE,[4],11%
same,CT (contraction time),[4],67.9 ms
same,EDP % vs. PRE,[4],−9%
same,EDP (left-ventricular end-diastolic pressure),[4],14.2 mmHg
same,FT % vs. PRE,[4],9%
same,FT (filling time),[4],577 ms
same,HR % vs. PRE,[4],−12%
same,HR (heart rate),[4],74 bpm
same,MSP % vs. PRE,[4],4%
same,MSP (left-ventricular mean systolic pressure),[4],143 mmHg
same,RT % vs. PRE,[4],5%
same,RT (relaxation time),[4],91 ms
same,S/D % vs. PRE,[4],0%
same,"S/D (systolic to diastolic ratio, SET/RT + FT)",[4],0.25
same,SET % vs. PRE,[4],7%
same,SET (systolic ejection time),[4],165 ms
same,Tau % vs. PRE,[4],3 ± 2%
same,Tau (left-ventricular relaxation time-constant),[4],28.8 ± 1.5 ms
same,Vmax % vs. PRE,[4],1 ± 1%
same,Vmax (estimated maximal velocity of myocardial contractile-element shortening),[4],37.3 ± 1.0 s⁻¹
same,dP/dtmax % vs. PRE,[4],2%
same,dP/dtmax (peak rate of LV pressure change during systole),[4],"2,702 mmHg/s"
same,dP/dtmin % vs. PRE,[4],2%
same,dP/dtmin (peak rate of LV pressure change during diastole),[4],"−2,457 mmHg/s"
same,CT (contraction time),[5],61.4 ± 0.6 ms
same,EDP (left-ventricular end-diastolic pressure),[5],15.7 mmHg
same,FT (filling time),[5],535 ± 46 ms
same,HR (heart rate),[5],85 bpm
same,MSP (left-ventricular mean systolic pressure),[5],138 mmHg
same,RT (relaxation time),[5],87 ± 1 ms
same,"S/D (systolic to diastolic ratio, SET/RT + FT)",[5],0.26
same,SET (systolic ejection time),[5],155 ± 2 ms
same,Tau (left-ventricular relaxation time-constant),[5],27.9 ± 1.4 ms
same,Vmax (estimated maximal velocity of myocardial contractile-element shortening),[5],37.1 ± 1.1 s⁻¹
same,dP/dtmax (peak rate of LV pressure change during systole),[5],"2,661 mmHg/s"
same,dP/dtmin (peak rate of LV pressure change during diastole),[5],"−2,407 mmHg/s"
same,CT,[6],61 ± 1 ms
same,FT,[6],577 ± 49 ms
same,HR,[6],82 ± 5 bpm
same,LV-EDP,[6],16 ± 2 mmHg
same,LV-MSP,[6],137 ± 3 mmHg
same,LV-Tau,[6],28.5 ± 1.4 ms
same,LV-Vmax,[6],37.0 ± 1.0 s⁻¹
same,LV-dP/dtmax,[6],"2,644 ± 79 mmHg/s"
same,LV-dP/dtmin,[6],"−2,367 ± 91 mmHg/s"
same,RT,[6],88 ± 1 ms
same,S/D,[6],0.24 ± 0.01
same,SET,[6],157 ± 2 ms
same,CT change vs. CTRL,[7],(−9 ± 1) %
same,LV-MSP change vs. CTRL,[7],(4 ± 2) %
same,LV-Tau change vs. CTRL,[7],(−3 ± 3) %
same,LV-Vmax change vs. CTRL,[7],(5 ± 3) %
same,LV-dP/dtmin change vs. CTRL,[7],(8 ± 3) %
same,RT change vs. CTRL,[7],(−2 ± 2) %
same,SET change vs. CTRL,[7],(4 ± 2) %

# Reference: US10543215B2, “Combination therapy of cardiac myosin activator and sinus node if current inhibitor” (AMGEN INC., priority 2015, dated 2020)
